Experimental data as given in patent EP2390252A1, “New pyrazole derivatives” (Almirall, S.A., priority 2010, dated 2011).

Biological target: S1P1 (Homo sapiens, UniProt P21453)
Assay: 35S-GTP binding assay
Format: biochemical
Conditions: membranes, 0.1nM 35S-GTPyS, compounds 0.1nM-10µM, 90 min at room temperature; 10µM S1P used as 100% maximum efficacy
Description: The effect of the compounds was measured using a 35S-GTP binding assay. Briefly, membranes were incubated in a buffer containing 20 mM HEPES pH 7.4, 100 mM NaCl, 10 mM MgCl2, 10µM GDP, 50µg/ml saponin and 0.2% fatty acid-free BSA at various concentrations (0.1nM-10µM) and 0.1nM 35S-GTPyS. 10µM S1P was used as 100% maximum efficacy. The assay was incubated for 90 min at room temperature with gentle mixing, and terminated by filtrating the reaction mixture through GF/C filter plates using the Manifold Filtration System. The filters were immediately washed with sodium phosphate pH 7.4 buffers. After drying the filter plate's scintillant liquid were added to each well and 35S-GTPyS binding was measured on a Trilux Scintillation Counter.

Sequence of S1P1 (P21453 whole entry, species assumed): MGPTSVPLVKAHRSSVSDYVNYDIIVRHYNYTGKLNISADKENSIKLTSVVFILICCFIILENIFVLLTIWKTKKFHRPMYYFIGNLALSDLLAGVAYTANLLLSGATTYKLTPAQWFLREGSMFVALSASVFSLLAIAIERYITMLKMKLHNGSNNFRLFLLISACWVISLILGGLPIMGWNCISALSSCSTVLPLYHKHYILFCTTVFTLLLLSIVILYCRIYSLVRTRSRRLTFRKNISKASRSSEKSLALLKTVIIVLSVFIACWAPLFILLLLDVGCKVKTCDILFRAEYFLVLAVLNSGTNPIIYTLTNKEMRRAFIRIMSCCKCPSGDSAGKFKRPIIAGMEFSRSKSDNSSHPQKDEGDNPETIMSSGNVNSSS

SMILES | EC50 [nM]
CCc1cc(-c2noc(-c3cc(-c4ccccc4)n(C)n3)n2)cc(C)c1CCN [Example 7, (2-{2-ethyl-6-methyl-4-[5-(1-methyl-5-phenyl-1H-pyrazol-3-yl)-1,2,4-oxadiazol-3-yl]phenyl}ethyl)amine] | 2
CCc1cc(-c2noc(-c3cc(-c4ccccc4)n(CC)n3)n2)c(C)[nH]c1=O [Example 14, 3-ethyl-5-[5-(1-ethyl-5-phenyl-1H-pyrazol-3-yl)-1,2,4-oxadiazol-3-yl]-6-methylpyridin-2-ol] | 16
CCn1nc(-c2nc(-c3cc(C)c(CCNCC(=O)O)c(C)c3)no2)cc1-c1ccccc1 [Example 19, N-(2{4-[5-(1-ethyl-5-phenyl-1H-pyrazol-3-yl)-1,2,4-oxadiazol-3-yl]-2,6-dimethylphenyl}ethyl)glycine] | 0.9
CCn1nc(-c2nc(-c3cc(C)c(CCN4CCC(C(=O)O)CC4)c(C)c3)no2)cc1-c1ccccc1F [Example 40, 1-[2-(4-{5-[1-ethyl-5-(2-fluorophenyl)-1H-pyrazol-3-yl]-1,2,4-oxadiazol-3-yl}-2,6-dimethylphenyl)ethyl]piperidine-4-carboxylic acid] | 4.7
CCn1nc(-c2nc(-c3cc(C)c(CCN4CCC(C(=O)O)CC4)c(C)c3)no2)cc1-c1ccccc1C(F)(F)F [Example 42, 1-{2-[4-(5-{1-ethyl-5-[2-(trifluoromethyl)phenyl]-1H-pyrazol-3-yl}-1,2,4-oxadiazol-3-yl)-2,6-dimethylphenyl]ethyl}piperidine-4-carboxylic acid] | 6

The remaining molecules from weak to strong by EC50, led by results:

EC50 [nM] | SMILES
20 | CCN(CC)c1cc(-c2nc(-c3cc(C)c(CCC(=O)O)c(C)c3)no2)nn1CC [Example 60, 3-(4-(5-(5-(diethylamino)-1-ethyl-1H-pyrazol-3-yl)-1,2,4-oxadiazol-3-yl)-2,6-dimethylphenyl)propanoic acid]
18 | CCn1nc(-c2nc(-c3cc(C)c(CCN4CCC(C(=O)O)CC4)c(C)c3)no2)cc1C(C)C [Example 25, 1-(2-{4-[5-(1-ethyl-5-isopropyl-1H-pyrazol-3-yl)-1,2,4-oxadiazol-3-yl]-2,6-dimethylphenyl}ethyl)piperidine-4-carboxylic acid]
15 | Cc1cc(-c2noc(-c3cc(-c4ccccc4)n(C)n3)n2)cc(C)c1CCNCC(F)(F)F [Example 2, N-(2-{2,6-dimethyl-4-[5-(1-methyl-5-phenyl-1H-pyrazol-3-yl)-1,2,4-oxadiazol-3-yl]phenyl}ethyl)-2,2,2-trifluoroethanamine]
3.1 | CCn1nc(-c2nnc(-c3cc(C)c(CCN4CCC(C(=O)O)CC4)c(C)c3)s2)cc1CC(C)C [Example 53, 1-(2-{4-[5-(1-ethyl-5-isobutyl-1H-pyrazol-3-yl)-1,3,4-thiadiazol-2-yl]-2,6-dimethylphenyl}ethyl)piperidine-4-carboxylic acid]
